Tested on: NRF2 (NQO1 activity as marker for NRF2 activation), BEAS-2B cells
Experiment: BEAS-2B NQO1 MTT Assay
Type: cell-based
Conditions: Homo sapiens, EC50 of NQO1 specific activity induction, 48 hours incubation, read-out: EC50
Outline: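 BEAS-2B cells were exposed to compound for 48 h at 37° C, 5% CO2, then lysed. NQO1 activity was measured kinetically by MTT reduction at 570 nm over 30 minutes; EC50 came from 3-parameter fit of Delta OD/min versus log concentration.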

Row | Compound | EC50 [nM]
1 | CC[C@@H]1CN(Cc2cc([C@@H](c3ccc4c(nnn4CC)c3C)C(C)(C)C(=O)Nc3cnc(C(=O)N(C)C)nc3)ccc2C)S(=O)(=O)c2ccccc2O1 [Example 189, 5-((S)-3-(3-(((R)-4-Ethyl-1,1-dioxido-3,4-dihydro-2H-benzo[b][1,4,5]oxathiazepin-2-yl)methyl)-4-methylphenyl)-3-(1-ethyl-4-methyl-1H-benzo[d][1,2,3]triazol-5-yl)-2,2-dimethylpropanamido)-N,N-dimethylpyrimidine-2-carboxamide] | 100 to 1000
2 | CC[C@@H]1CN(Cc2cc([C@@H](c3ccc4c(nnn4CC)c3C)C(C)(C)C(=O)Nc3cnc(OCC(=O)OC)nc3)ccc2C)S(=O)(=O)c2ccccc2O1 [Example 190, Methyl 2-((5-((S)-3-(3-(((R)-4-ethyl-1,1-dioxido-3,4-dihydro-2H-benzo[b][1,4,5]oxathiazepin-2-yl)methyl)-4-methylphenyl)-3-(1-ethyl-4-methyl-1H-benzo[d][1,2,3]triazol-5-yl)-2,2-dimethylpropanamido)pyrimidin-2-yl)oxy)acetate] | 100 to 1000
3 | CC[C@@H]1CN(Cc2cc([C@@H](c3ccc4c(nnn4CC)c3C)C(C)(C)C(=O)Nc3cnc(OCCNC(=O)OC(C)(C)C)nc3)ccc2C)S(=O)(=O)c2ccccc2O1 [Example 191, tert-Butyl (2-((5-((S)-3-(3-(((R)-4-ethyl-1,1-dioxido-3,4-dihydro-2H-benzo[b]-[1,4,5]oxathiazepin-2-yl)methyl)-4-methylphenyl)-3-(1-ethyl-4-methyl-1H-benzo[d][1,2,3]triazol-5-yl)-2,2-dimethylpropanamido)pyrimidin-2-yl)oxy)-ethyl)carbamate] | 10 to 100
4 | CC[C@@H]1CN(Cc2cc([C@@H](c3ccc4c(nnn4CC)c3C)C(C)(C)C(=O)Nc3cnc(OCCOC(C)(C)C)nc3)ccc2C)S(=O)(=O)c2ccccc2O1 [Example 192, (S)-N-(2-(2-(tert-Butoxy)ethoxy)pyrimidin-5-yl)-3-(3-(((R)-4-ethyl-1,1-dioxido-3,4-dihydro-2H-benzo[b][1,4,5]oxathiazepin-2-yl)methyl)-4-methylphenyl)-3-(1-ethyl-4-methyl-1H-benzo[d][1,2,3]triazol-5-yl)-2,2-dimethylpropanamide] | 10 to 100
5 | CC[C@@H]1CN(Cc2cc([C@@H](c3ccc4c(nnn4CC)c3C)C(C)(C)C(=O)Nc3cnc(OCCOC)nc3)ccc2C)S(=O)(=O)c2ccccc2O1 [Example 193, (S)-3-(3-(((R)-4-Ethyl-1,1-dioxido-3,4-dihydro-2H-benzo[b][1,4,5]oxathiazepin-2-yl)methyl)-4-methylphenyl)-3-(1-ethyl-4-methyl-1H-benzo[d][1,2,3]triazol-5-yl)-N-(2-(2-methoxyethoxy)pyrimidin-5-yl)-2,2-dimethylpropanamide] | 1 to 10
6 | CC[C@@H]1CN(Cc2cc([C@@H](c3ccc4c(nnn4CC)c3C)C(C)(C)C(=O)Nc3cnc(CO)nc3)ccc2C)S(=O)(=O)c2ccccc2O1 [Example 194, (S)-3-(3-(((R)-4-Ethyl-1,1-dioxido-3,4-dihydro-2H-benzo[b][1,4,5]oxathiazepin-2-yl)methyl)-4-methylphenyl)-3-(1-ethyl-4-methyl-1H-benzo[d][1,2,3]triazol-5-yl)-N-(2-(hydroxymethyl)pyrimidin-5-yl)-2,2-dimethylpropanamide] | 10 to 100
7 | CC[C@@H]1CN(Cc2cc([C@@H](c3ccc4c(nnn4CC)c3C)C(C)(C)C(=O)Nc3cnc(C(=O)O)nc3)ccc2C)S(=O)(=O)c2ccccc2O1 [Example 195, 5-((S)-3-(3-(((R)-4-Ethyl-1,1-dioxido-3,4-dihydro-2H-benzo[b][1,4,5]oxathiazepin-2-yl)methyl)-4-methylphenyl)-3-(1-ethyl-4-methyl-1H-benzo[d][1,2,3]triazol-5-yl)-2,2-dimethylpropanamido)pyrimidine-2-carboxylic Acid] | 10 to 100
8 | CC[C@@H]1CN(Cc2cc([C@@H](c3ccc4c(nnn4CC)c3C)C(C)(C)C(=O)Nc3cnc(CN)nc3)ccc2C)S(=O)(=O)c2ccccc2O1 [Example 196, (S)—N-(2-(Aminomethyl)pyrimidin-5-yl)-3-(3-(((R)-4-ethyl-1,1-dioxido-3,4-dihydro-2H-benzo[b][1,4,5]oxathiazepin-2-yl)methyl)-4-methylphenyl)-3-(1-ethyl-4-methyl-1H-benzo[d][1,2,3]triazol-5-yl)-2,2-dimethylpropanamide] | 100 to 1000
9 | CC[C@@H]1CN(Cc2cc([C@@H](c3ccc4c(nnn4CC)c3C)C(C)(C)C(=O)Nc3cnc(OCC(=O)O)nc3)ccc2C)S(=O)(=O)c2ccccc2O1 [Example 197, 2-((5-((S)-3-(3-(((R)-4-Ethyl-1,1-dioxido-3,4-dihydro-2H-benzo[b][1,4,5]oxathiazepin-2-yl)methyl)-4-methylphenyl)-3-(1-ethyl-4-methyl-1H-benzo[d][1,2,3]triazol-5-yl)-2,2-dimethylpropanamido)pyrimidin-2-yl)oxy)acetic Acid] | 10 to 100
10 | CC[C@@H]1CN(Cc2cc([C@@H](c3ccc4c(nnn4CC)c3C)C(C)(C)C(=O)Nc3cnc(OCCN)nc3)ccc2C)S(=O)(=O)c2ccccc2O1 [Example 198, (S)—N-(2-(2-Aminoethoxy)pyrimidin-5-yl)-3-(3-(((R)-4-ethyl-1,1-dioxido-3,4-dihydro-2H-benzo[b][1,4,5]oxathiazepin-2-yl)methyl)-4-methylphenyl)-3-(1-ethyl-4-methyl-1H-benzo[d][1,2,3]triazol-5-yl)-2,2-dimethylpropanamide] | 10 to 100
11 | CC[C@@H]1CN(Cc2cc([C@@H](c3ccc4c(nnn4CC)c3C)C(C)(C)C(=O)Nc3cnc(OCCO)nc3)ccc2C)S(=O)(=O)c2ccccc2O1 [Example 199, (S)-3-(3-(((R)-4-Ethyl-1,1-dioxido-3,4-dihydro-2H-benzo[b][1,4,5]oxathiazepin-2-yl)methyl)-4-methylphenyl)-3-(1-ethyl-4-methyl-1H-benzo[d][1,2,3]triazol-5-yl)-N-(2-(2-hydroxyethoxy)pyrimidin-5-yl)-2,2-dimethylpropanamide] | 10 to 100
12 | CC[C@@H]1CN(Cc2cc([C@@H](c3ccc4c(nnn4CC)c3C)C(C)(C)C(=O)NCC(=O)O)ccc2C)S(=O)(=O)c2ccccc2O1 [Example 200, 2-((S)-3-(3-(((R)-4-ethyl-1,1-dioxido-3,4-dihydro-2H-benzo[b][1,4,5]oxathiazepin-2-yl)methyl)-4-methylphenyl)-3-(1-ethyl-4-methyl-1H-benzo[d][1,2,3]triazol-5-yl)-2,2-dimethylpropanamido)acetate] | 10 to 100
13 | CC[C@@H]1CN(Cc2cc([C@@H](c3ccc4c(nnn4CC)c3C)C(C)(C)C(=O)NCCC(=O)O)ccc2C)S(=O)(=O)c2ccccc2O1 [Example 201, 3-((S)-3-(3-(((R)-4-ethyl-1,1-dioxido-3,4-dihydro-2H-benzo[b][1,4,5]oxathiazepin-2-yl)methyl)-4-methylphenyl)-3-(1-ethyl-4-methyl-1H-benzo[d][1,2,3]triazol-5-yl)-2,2-dimethylpropanamido)propanoic acid] | 100 to 1000
14 | CC[C@@H]1CN(Cc2cc([C@@H](c3ccc4c(nnn4CC)c3C)C(C)(C)C(=O)NC(CC(=O)O)C(=O)O)ccc2C)S(=O)(=O)c2ccccc2O1 (stereo partly drawn) [Example 202, 2-((S)-3-(3-(((R)-4-ethyl-1,1-dioxido-3,4-dihydro-2H-benzo[b][1,4,5]oxathiazepin-2-yl)methyl)-4-methylphenyl)-3-(1-ethyl-4-methyl-1H-benzo[d][1,2,3]triazol-5-yl)-2,2-dimethylpropanamido)succinic acid] | 1 to 10
15 | CC[C@@H]1CN(Cc2cc([C@@H](c3ccc4c(nnn4CC)c3C)C(C)(C)C(=O)NC(CC(=O)O)CC(=O)O)ccc2C)S(=O)(=O)c2ccccc2O1 [Example 203, 3-((S)-3-(3-(((R)-4-ethyl-1,1-dioxido-3,4-dihydro-2H-benzo[b][1,4,5]oxathiazepin-2-yl)methyl)-4-methylphenyl)-3-(1-ethyl-4-methyl-1H-benzo[d][1,2,3]triazol-5-yl)-2,2-dimethylpropanamido)pentanedioic acid] | 1000 to 10000
16 | CC[C@@H]1CN(Cc2cc([C@@H](c3ccc4c(nnn4CC)c3C)C(C)(C)C(=O)NC(CC(=O)O)c3ccncc3)ccc2C)S(=O)(=O)c2ccccc2O1 (stereo partly drawn) [Example 204, 3-((S)-3-(3-(((R)-4-ethyl-1,1-dioxido-3,4-dihydro-2H-benzo[b][1,4,5]oxathiazepin-2-yl)methyl)-4-methylphenyl)-3-(1-ethyl-4-methyl-1H-benzo[d][1,2,3]triazol-5-yl)-2,2-dimethylpropanamido)-3-(pyridin-4-yl)propanoic acid] | 100 to 1000
17 | CC[C@@H]1CN(Cc2cc([C@@H](c3ccc4c(nnn4CC)c3C)C(C)(C)C(=O)NC(C)C(=O)O)ccc2C)S(=O)(=O)c2ccccc2O1 (stereo partly drawn) [Example 205, 2-((S)-3-(3-(((R)-4-ethyl-1,1-dioxido-3,4-dihydro-2H-benzo[b][1,4,5]oxathiazepin-2-yl)methyl)-4-methylphenyl)-3-(1-ethyl-4-methyl-1H-benzo[d][1,2,3]triazol-5-yl)-2,2-dimethylpropanamido)propanoic acid] | 100 to 1000
18 | CC[C@@H]1CN(Cc2cc([C@@H](c3ccc4c(nnn4CC)c3C)C(C)(C)C(=O)NCCC(F)(F)F)ccc2C)S(=O)(=O)c2ccccc2O1 [Example 206, (S)-3-(3-(((R)-4-ethyl-1,1-dioxido-3,4-dihydro-2H-benzo[b][1,4,5]oxathiazepin-2-yl)methyl)-4-methylphenyl)-3-(1-ethyl-4-methyl-1H-benzo[d][1,2,3]triazol-5-yl)-2,2-dimethyl-N-(3,3,3-trifluoropropyl)propanamide] | 10 to 100
19 | CC[C@@H]1CN(Cc2cc([C@@H](c3ccc4c(nnn4CC)c3C)C(C)(C)C(=O)NC(C)(C)C(=O)O)ccc2C)S(=O)(=O)c2ccccc2O1 [Example 207, 2-((S)-3-(3-(((R)-4-ethyl-1,1-dioxido-3,4-dihydro-2H-benzo[b][1,4,5]oxathiazepin-2-yl)methyl)-4-methylphenyl)-3-(1-ethyl-4-methyl-1H-benzo[d][1,2,3]triazol-5-yl)-2,2-dimethylpropanamido)-2-methylpropanoic acid] | 100 to 1000

Reference: patent US11078216B2, “Bisaryl amides as NRF2 activators” (GLAXOSMITHKLINE INTELLECTUAL PROPERTY DEVELOPMENT LIMITED, priority 2016, dated 2021)
